# In US6743816B2, “Imidazole derivatives with anti-inflammatory activity” (J. Uriach & Cia S.A., priority 2000, dated 2004):
# Where a name gives a salt, the structure may show the parent alone.
# Legend:
# [1] = target: T1, human COX-1 (U-937 from human histiocitic lymphoma) (Homo sapiens, UniProt P23219); assay: Inhibition of COX-1 activity in human cell line (PGE2 production after arachidonic acid); format: cell-based; conditions: 0.1 μM test compound; U-937 cells; PGE2 after 10 μM arachidonic acid
# T1 construct: cell lines expressing human COX-1 (U-937 from human histiocitic lymphoma); endogenous in cells; host or cells: U-937 (human histiocytic lymphoma)
# T1 sequence (P23219 24-599): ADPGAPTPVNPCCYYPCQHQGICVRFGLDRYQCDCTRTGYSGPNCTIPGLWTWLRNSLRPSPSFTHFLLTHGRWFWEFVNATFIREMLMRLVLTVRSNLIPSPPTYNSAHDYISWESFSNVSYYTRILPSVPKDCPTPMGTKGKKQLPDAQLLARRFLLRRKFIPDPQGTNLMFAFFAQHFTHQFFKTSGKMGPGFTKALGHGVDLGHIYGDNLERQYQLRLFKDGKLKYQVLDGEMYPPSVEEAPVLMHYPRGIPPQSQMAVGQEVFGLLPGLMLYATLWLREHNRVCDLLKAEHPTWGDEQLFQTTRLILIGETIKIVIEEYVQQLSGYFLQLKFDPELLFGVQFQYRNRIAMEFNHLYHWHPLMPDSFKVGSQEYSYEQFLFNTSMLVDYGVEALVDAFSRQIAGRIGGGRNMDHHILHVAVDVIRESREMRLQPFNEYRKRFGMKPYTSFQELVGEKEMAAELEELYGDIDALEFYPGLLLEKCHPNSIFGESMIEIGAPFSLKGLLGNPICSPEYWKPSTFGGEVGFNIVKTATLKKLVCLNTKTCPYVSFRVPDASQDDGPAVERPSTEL
# Procedure: (§1) Inhibition of Cyclooxygenase-1 (COX-1) and Cyclooxygenase-2 (COX-2) Activity in Human Cell Lines
# The inhibition of COX-1 and COX-2 is determined by assessing the PGE2 production after stimulation with arachidonic acid in cell lines expressing human COX-1 (U-937 from human histiocitic lymphoma) and human COX-2 (143.98.2 from human osteosarcoma), respectively.
# (§2) The osteosarcoma-derived cells were cultured in 1 mL of DMEM culture medium supplemented with 10% fetal calf serum, in 24-well multidishes until confluence. U-937 cells were cultured in RPMI medium supplemented with 10% fetal calf serum in flasks.
# (§3) To evaluate COX-2 activity, the medium was removed and replaced with Hepes-buffered saline solution (HBSS) without Ca^2+/Mg^2+ (2×10^5 cells/well). To evaluate COX-1 activity, the medium was removed and U-937 cells were resuspended to a final density of 3×10^6 cells/mL in HBSS without Ca^2+/Mg^2+ (1 mL/well, in 24-well multidishes). 1 μL of a solution of the test compound dissolved in DMSO or vehicle was added, and the samples were incubated for 15 min at 37° C. (5% CO2 and 95% humidity). Arachidonic acid was added (final concentration: 10 μM) and the samples were incubated for 10 min more. Next the reactions were quenched by adding indomethacin (8 mM, 30 μL). The amount of PGE2 in the supernatant was determined by specific enzymatic immunoassay (Kit Prostaglandin E2, Biotrak EIA system RPN222, Amersham Pharmacia Biotech). All the assays were performed in triplicate.
# [2] = target: T2, human COX-2 (143.98.2 from human osteosarcoma) (Homo sapiens, UniProt P35354); assay: Inhibition of COX-2 activity in human cell line (PGE2 production after arachidonic acid); format: cell-based; conditions: 0.1 μM test compound; 143.98.2 osteosarcoma cells; PGE2 after 10 μM arachidonic acid
# T2 construct: human COX-2 (143.98.2 from human osteosarcoma); endogenous in cells; host or cells: 143.98.2 (human osteosarcoma)
# T2 sequence (P35354 18-604): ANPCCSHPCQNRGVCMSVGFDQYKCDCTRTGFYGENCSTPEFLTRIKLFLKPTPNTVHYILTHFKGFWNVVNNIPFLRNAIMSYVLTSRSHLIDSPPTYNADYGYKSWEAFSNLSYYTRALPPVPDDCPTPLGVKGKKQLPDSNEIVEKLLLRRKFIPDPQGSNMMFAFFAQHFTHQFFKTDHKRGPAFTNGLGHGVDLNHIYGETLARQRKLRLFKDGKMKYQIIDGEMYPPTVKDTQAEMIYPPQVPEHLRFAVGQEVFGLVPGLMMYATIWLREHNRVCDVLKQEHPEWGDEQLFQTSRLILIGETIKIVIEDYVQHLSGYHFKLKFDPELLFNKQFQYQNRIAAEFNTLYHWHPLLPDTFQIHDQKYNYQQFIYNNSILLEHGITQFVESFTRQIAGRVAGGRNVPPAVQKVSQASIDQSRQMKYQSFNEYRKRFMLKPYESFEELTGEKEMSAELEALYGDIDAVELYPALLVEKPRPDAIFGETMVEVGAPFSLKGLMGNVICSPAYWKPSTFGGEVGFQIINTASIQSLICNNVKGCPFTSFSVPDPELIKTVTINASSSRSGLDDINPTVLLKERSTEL
# Procedure: as §1, §2
# as §3, with “(5% CO2 and 95% humidity).” left out
inhibition at 0.1 µM [1],inhibition at 0.1 µM [2],SMILES,% Inhibition (0.1 μM) COX-1 [1],% Inhibition (0.1 μM) COX-2 [2]
0%,52%,"CC(C)Oc1ccc(-c2c(Cl)ncn2-c2ccc(S(C)(=O)=O)cc2)cc1 [Example 1, 4-Chloro-5-(4-isopropoxyphenyl)-1-(4-methylsulfonylphenyl)imidazole]",–,–
0%,82%,"COc1cc(-c2c(Cl)ncn2-c2ccc(S(C)(=O)=O)cc2)ccc1F [Example 2, 4-Chloro-5-(4-fluoro-3-methoxyphenyl)-1-(4-methylsulfonylphenyl)imidazole]",–,–
15%,76%,"CCOc1ccc(-c2c(Cl)ncn2-c2ccc(S(C)(=O)=O)cc2)cc1F [Example 3, 4-Chloro-5-(4-ethoxy-3-fluorophenyl)-1-(4-methylsulfonylphenyl)imidazole]",–,–
2%,57%,"CS(=O)(=O)c1ccc(-n2cnc(Cl)c2-c2cc(F)cc(F)c2)cc1 [Example 4, 4-Chloro-5-(3,5-difluorophenyl)-1-(4-methylsulfonylphenyl)imidazole]",–,–
17%,92%,"COc1ccc(-c2c(Cl)ncn2-c2ccc(S(C)(=O)=O)cc2)cc1Cl [Example 5, 4-Chloro-5-(3-chloro-4-methoxyphenyl)-1-(4-methylsulfonylphenyl)imidazole]",–,–
0%,87%,"CCOc1ccc(-c2c(Cl)ncn2-c2ccc(S(C)(=O)=O)cc2)cc1Cl [Example 6, 4-Chloro-5-(3-chloro-4-ethoxyphenyl)-1-(4-methylsulfonylphenyl)imidazole]",–,–
–,–,"CS(=O)(=O)c1ccc(-n2cnc(Cl)c2-c2ccc3c(c2)OCO3)cc1 [Example 7, 4-Chloro-5-[3,4-(methylenedioxy)phenyl]-1-(4-methylsulfonylphenyl)imidazole]",1%,–
0%,92%,"COc1c(Cl)cc(-c2c(Cl)ncn2-c2ccc(S(C)(=O)=O)cc2)cc1Cl [Example 8, 4-Chloro-5-(3,5-dichloro-4-methoxyphenyl)-1-(4-methylsulfonylphenyl)imidazole]",–,–
0%,82%,"CC(C)c1ccc(-c2c(Cl)ncn2-c2ccc(S(C)(=O)=O)cc2)cc1 [Example 9, 4-Chloro-5-(4-isopropylphenyl)-1-(4-methylsulfonylphenyl)imidazole]",–,–
–,–,"CCN(CC)c1ccc(-c2c(Cl)ncn2-c2ccc(S(C)(=O)=O)cc2)cc1 [Example 10, 4-Chloro-5-(4-N,N-diethylaminophenyl)-1-(4-methylsulfonylphenyl)imidazole]",0%,64%
0%,88%,"COc1cc(-c2c(Cl)ncn2-c2ccc(S(N)(=O)=O)cc2)ccc1F [Example 11, 4-[4-Chloro-5-(4-fluoro-3-methoxyphenyl)imidazol-1-yl]benzenesulfonamide]",–,–
0%,65%,"CCOc1ccc(-c2c(Cl)ncn2-c2ccc(S(N)(=O)=O)cc2)cc1F [Example 12, 4-[4-Chloro-5-(4-ethoxy-3-fluorophenyl)imidazol-1-yl]benzenesulfonamide]",–,–
0%,97%,"CCOc1ccc(-c2c(Cl)ncn2-c2ccc(S(N)(=O)=O)cc2)cc1Cl [Example 13, 4-[4-Chloro-5-(3-chloro-4-ethoxyphenyl)imidazol-1-yl]benzenesulfonamide]",–,–
8%,87%,"COc1ccc(-c2c(Cl)ncn2-c2ccc(S(N)(=O)=O)cc2)cc1Cl [Example 14, 4-[4-Chloro-5-(3-chloro-4-methoxyphenyl)imidazol-1-yl]benzenesulfonamide]",–,–
0%,90%,"COc1c(Cl)cc(-c2c(Cl)ncn2-c2ccc(S(N)(=O)=O)cc2)cc1Cl [Example 15, 4-[4-Chloro-5-(3,5-dichloro-4-methoxyphenyl)imidazol-1-yl]benzenesulfonamide Hydrochloride]",–,–
0%,48%,"CCCc1ccc(-c2c(Cl)ncn2-c2ccc(S(C)(=O)=O)cc2)cc1 [Example 16, 4-Chloro-1-(4-methylsulfonylphenyl)-5-(4-propylphenyl)imidazole]",–,–
